Data on 19 compounds can be found in US10316049B2, “Tank-binding kinase inhibitor compounds” (Gilead Sciences, Inc., priority 2015, dated 2019).

One assay concerns the target T1, IKKε (Homo sapiens, UniProt Q14164).
T1 construct: TBK1 and IKKε were expressed and purified as full length recombinant proteins; made in house
T1 sequence (Q14164 1-716): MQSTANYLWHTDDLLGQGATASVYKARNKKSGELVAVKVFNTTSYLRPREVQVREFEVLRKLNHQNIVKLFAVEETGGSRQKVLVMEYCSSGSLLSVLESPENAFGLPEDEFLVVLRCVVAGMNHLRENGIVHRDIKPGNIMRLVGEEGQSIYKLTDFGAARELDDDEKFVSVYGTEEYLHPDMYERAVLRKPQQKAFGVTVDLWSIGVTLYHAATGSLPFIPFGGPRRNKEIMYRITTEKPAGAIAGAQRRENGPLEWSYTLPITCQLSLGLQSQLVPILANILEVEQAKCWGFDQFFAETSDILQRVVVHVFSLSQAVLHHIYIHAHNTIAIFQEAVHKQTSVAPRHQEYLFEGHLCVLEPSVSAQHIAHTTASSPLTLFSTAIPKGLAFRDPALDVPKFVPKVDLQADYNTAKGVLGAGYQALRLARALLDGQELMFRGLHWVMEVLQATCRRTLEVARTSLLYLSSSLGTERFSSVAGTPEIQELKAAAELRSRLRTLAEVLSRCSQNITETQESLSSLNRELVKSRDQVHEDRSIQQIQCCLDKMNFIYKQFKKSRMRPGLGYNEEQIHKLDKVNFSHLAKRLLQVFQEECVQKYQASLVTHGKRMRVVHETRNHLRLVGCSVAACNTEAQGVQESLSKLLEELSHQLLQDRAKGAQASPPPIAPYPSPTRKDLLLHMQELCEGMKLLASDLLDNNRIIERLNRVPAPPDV
In words: TR-FRET enzymatic activity assay, IKKε. Also: full length recombinant IKKε at 0.3 nM. The conditions noted are these: read-out: IKKϵ IC50. Format: biochemical. Put shortly:
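Full-length recombinant IKKε phosphorylated a biotinylated Ser/Thr peptide for 240 min at 25 °C; EDTA stop. Phospho-peptide detected by TR-FRET with streptavidin-XL665 (125 nM) and Eu-cryptate anti-phospho antibody. Normalised to staurosporine and DMSO controls; IC50 from four-parameter fit, geometric mean of ≥4 runs.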
For orientation: Time-resolved FRET reads energy transfer from a long-lived donor to a nearby acceptor.

The next assay has as its target T2, TBK1 (Homo sapiens, UniProt Q9UHD2).
T2 construct: TBK1 and IKKε were expressed and purified as full length recombinant proteins; made in house
T2 sequence (Q9UHD2 1-729): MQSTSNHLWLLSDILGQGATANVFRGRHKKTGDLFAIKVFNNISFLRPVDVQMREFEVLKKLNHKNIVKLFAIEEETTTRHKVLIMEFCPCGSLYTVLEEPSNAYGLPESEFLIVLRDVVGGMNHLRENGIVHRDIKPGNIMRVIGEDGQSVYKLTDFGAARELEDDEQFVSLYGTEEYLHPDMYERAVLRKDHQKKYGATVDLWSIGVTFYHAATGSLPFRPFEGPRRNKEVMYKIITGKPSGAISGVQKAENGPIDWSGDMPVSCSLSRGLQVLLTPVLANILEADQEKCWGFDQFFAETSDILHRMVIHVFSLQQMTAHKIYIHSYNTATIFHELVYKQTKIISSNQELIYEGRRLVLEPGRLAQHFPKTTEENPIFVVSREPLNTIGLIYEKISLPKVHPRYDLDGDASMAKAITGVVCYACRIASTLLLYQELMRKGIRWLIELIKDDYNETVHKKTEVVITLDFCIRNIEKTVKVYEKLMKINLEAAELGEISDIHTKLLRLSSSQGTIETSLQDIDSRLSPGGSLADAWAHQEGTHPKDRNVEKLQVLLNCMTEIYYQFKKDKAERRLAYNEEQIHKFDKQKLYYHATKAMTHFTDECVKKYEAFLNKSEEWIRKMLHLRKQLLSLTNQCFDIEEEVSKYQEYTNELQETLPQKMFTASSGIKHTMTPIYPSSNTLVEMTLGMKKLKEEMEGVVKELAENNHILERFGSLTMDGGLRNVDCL
The assay can be described thus: TR-FRET enzymatic activity assay, TBK1. Also: full length recombinant TBK1 at 2.5 nM. Format: biochemical. Put shortly: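 Full-length recombinant enzymes phosphorylated a biotinylated Ser/Thr peptide for 240 min at 25 °C, stopped with EDTA. Phosphopeptide detected by TR-FRET (streptavidin XL665, Eu-cryptate anti-phospho antibody). IC50 from four-parameter fits normalized to 1 μM staurosporine and DMSO controls, as geometric means of at least four determinations.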

For the compound `CC(=O)OC1(C(=O)Nc2cc(-c3ccc(OC4CCOCC4)c(C#N)c3)ccn2)CC1` [Example 37, 1-((4-(3-cyano-4-((tetrahydro-2H-pyran-4-yl)oxy)phenyl)pyridin-2-yl)carbamoyl)cyclopropyl acetate], the 50% inhibitory concentration (IC50) at IKKε and against TBK1 was > 1000 nM each time.
Turning to `N#Cc1cc(-c2cc(NC(=O)C3CC3)ncn2)ccc1OC1CCN(C(=O)CO)CC1` [Example 23, N-(6-(3-cyano-4-((1-(2-hydroxyacetyl)piperidin-4-yl)oxy)phenyl)pyrimidin-4-yl)cyclopropanecarboxamide], the IC50 – broadly, the point on the concentration scale where inhibition reaches its midpoint – on IKKε came to 160 nM; against TBK1 it was 66.1 nM.
For `N#Cc1cc(-c2cc(NC(=O)C3CC3)ncn2)ccc1O[C@H]1CCN(C(=O)c2nnc[nH]2)CC1(F)F` [Example 32, (S)—N-(6-(3-cyano-4-((3,3-difluoro-1-(4H-1,2,4-triazole-3-carbonyl)piperidin-4-yl)oxy)phenyl)pyrimidin-4-yl)cyclopropanecarboxamide], the IC50 on IKKε stood at 7.1 nM; at TBK1, 5.6 nM.
As for `N#Cc1cc(-c2ccnc(NC(=O)C3CC3)c2)ccc1OC1CCOCC1` [Example 2, N-(4-(3-cyano-4-((tetrahydro-2H-pyran-4-yl)oxy)phenyl)pyridin-2-yl)cyclopropanecarboxamide], the values for the concentration for half-maximal inhibition (IC50) at IKKε and at TBK1 were 115 nM and 28.1 nM, respectively.
For the compound `CC1(C)C[C@@H]1C(=O)Nc1cc(-c2ccc(O[C@H]3CCN(C(=O)CO)C[C@H]3F)c(C#N)c2)ccn1` [Example 69, (S)—N-(4-(3-Cyano-4-(((3R,4S)-3-fluoro-1-(2-hydroxyacetyl)piperidin-4-yl)oxy)phenyl)pyridin-2-yl)-2,2-dimethylcyclopropane-1-carboxamide], the IC50 at IKKε was determined as 133 nM; at TBK1 it was 43.9 nM.
For `C[C@H](N)C(=O)OCC(=O)N1CC[C@H](Oc2ccc(-c3cc(NC(=O)C4CC4)ncn3)cc2C#N)C(F)(F)C1` [Example 159, 2-((S)-4-(2-cyano-4-(6-(cyclopropanecarboxamido)pyrimidin-4-yl)phenoxy)-3,3-difluoropiperidin-1-yl)-2-oxoethyl L-Alaninate], the IC50 at IKKε was found to be 39.3 nM; against TBK1 it was 12.8 nM.
For `N#Cc1cc(-c2ccnc(NC(=O)C3CC3)c2)ccc1O[C@H]1CCN(C(=O)CCO)CC1(F)F` [Example 15, (S)—N-(4-(3-cyano-4-((3,3-difluoro-1-(3-hydroxypropanoyl)piperidin-4-yl)oxy)phenyl)pyridin-2-yl)cyclopropanecarboxamide] the same measures were 84.2 nM and 23.2 nM.
As for `N#Cc1cc(-c2ccnc(NC(=O)[C@H]3C[C@@H]3c3cccnc3)c2)ccc1OC1CCOCC1` (relative stereo) [Example 100, (1,2-trans)-N-(4-(3-cyano-4-((tetrahydro-2H-pyran-4-yl)oxy)phenyl)pyridin-2-yl)-2-(pyridin-3-yl)cyclopropane-1-carboxamide], the half-inhibitory concentration (IC50) at IKKε amounted to 130 nM; against TBK1, 20.3 nM.
For the compound `Cc1n[nH]c(C(=O)N2CC[C@H](Oc3ccc(-c4cc(NC(=O)C5CC5)ncn4)cc3C#N)[C@H](F)C2)n1` [Example 30, N-(6-(3-cyano-4-(((3R,4S)-3-fluoro-1-(3-methyl-1H-1,2,4-triazole-5-carbonyl)piperidin-4-yl)oxy)phenyl)pyrimidin-4-yl)cyclopropanecarboxamide], the IC50 worked out at 7.4 nM at IKKε and 7.2 nM against TBK1.
As for `Cn1ccnc1[C@@H]1C[C@H]1C(=O)Nc1cc(-c2ccc(O[C@H]3CCN(C(=O)CO)CC3(F)F)c(C#N)c2)ncn1` [Example 114, (1R,2R)—N-(6-(3-cyano-4-(((S)-3,3-difluoro-1-(2-hydroxyacetyl)piperidin-4-yl)oxy)phenyl)pyrimidin-4-yl)-2-(1-methyl-1H-imidazol-2-yl)cyclopropane-1-carboxamide], the IC50 on IKKε worked out at 36 nM; on TBK1 it was 181 nM.
Take `N#Cc1cc(-c2ccnc(NC(=O)[C@@H]3C[C@H]3C#N)c2)ccc1OC1CCOCC1` (relative stereo) [Example 116, (1,2-Trans)-2-cyano-N-(4-(3-cyano-4-((tetrahydro-2H-pyran-4-yl)oxy)phenyl)pyridin-2-yl)cyclopropane-1-carboxamide]: the values for the IC50 on IKKε and against TBK1 were 471 nM and 181 nM, respectively.
The corresponding values for `N#Cc1cc(-c2cc(NC(=O)C3CC3)ncn2)ccc1O[C@H]1CCN(C(=O)[C@@H](O)CO)CC1(F)F` [Example 22, N-(6-(3-cyano-4-(((S)-1-((S)-2,3-dihydroxypropanoyl)-3,3-difluoropiperidin-4-yl)oxy)phenyl)pyrimidin-4-yl)cyclopropanecarboxamide] are 9 nM and 2.8 nM.
As to `N#Cc1cc(-c2ccnc(NC(=O)[C@@H]3C[C@H]3C=O)c2)ccc1OC1CCOCC1` (relative stereo) [Example 40, (1,2-trans)-N-(4-(3-cyano-4-((tetrahydro-2H-pyran-4-yl)oxy)phenyl)pyridin-2-yl)-2-formylcyclopropane-1-carboxamide], the concentration for half-maximal inhibition (IC50) stood at 65 nM on IKKε and 61.5 nM at TBK1.
Take `CO[C@H]1CCN(c2ccc(-c3ccnc(NC(=O)C4CC4)c3)cc2C#N)C1` [Example 94, (S)—N-(4-(3-cyano-4-(3-methoxypyrrolidin-1-yl)phenyl)pyridin-2-yl)cyclopropanecarboxamide]: the IC50 worked out at 195 nM on IKKε and 120 nM against TBK1.
Regarding `N#Cc1cc(-c2ccnc(NC(=O)C3(F)CC3)c2)ccc1O[C@H]1CCN(C(=O)CO)C[C@H]1F` [Example 78, N-(4-(3-Cyano-4-(((3R,4S)-3-fluoro-1-(2-hydroxyacetyl)piperidin-4-yl)oxy)phenyl)pyridin-2-yl)-1-fluorocyclopropane-1-carboxamide], the values for the IC50 at IKKε and against TBK1 were 294 nM and 400 nM, respectively.
The corresponding values for `N#Cc1cc(-c2cc(NC(=O)[C@@H]3C[C@H]3c3cccnc3)ncn2)ccc1O[C@H]1CCN(C(=O)[C@@H](O)CO)CC1(F)F` [Example 144, (1,2-Trans)-N-(6-(3-cyano-4-(((S)-1-((S)-2,3-dihydroxypropanoyl)-3,3-difluoropiperidin-4-yl)oxy)phenyl)pyrimidin-4-yl)-2-(pyridin-3-yl)cyclopropane-1-carboxamide] are 9 nM and 7.1 nM.
With `CC(C)(C)OC(=O)N1CC[C@H](Oc2ccc(-c3cc(NC(=O)C4CC4)ncn3)cc2C#N)C(F)(F)C1` [Example 104, Tert-butyl (S)-4-(2-cyano-4-(6-(cyclopropanecarboxamido)pyrimidin-4-yl)phenoxy)-3,3-difluoropiperidine-1-carboxylate], the IC50 on IKKε and against TBK1 was > 1000 nM throughout.
`Cn1cc(C(=O)N2CC[C@H](Oc3ccc(-c4cc(NC(=O)C5CC5)ncn4)cc3C#N)[C@H](F)C2)nn1` [Example 27, N-(6-(3-cyano-4-(((3R,4S)-3-fluoro-1-(1-methyl-1H-1,2,3-triazole-4-carbonyl)piperidin-4-yl)oxy)phenyl)pyrimidin-4-yl)cyclopropanecarboxamide]: the IC50 at IKKε amounted to 29.6 nM; against TBK1, 18.1 nM.
For `Cc1nnc([C@@H]2C[C@H]2C(=O)Nc2cc(-c3ccc(O[C@H]4CCN(C(=O)CO)C[C@H]4F)c(C#N)c3)ccn2)o1` [Example 156, Trans-N-(4-(3-cyano-4-(((3R,4S)-3-fluoro-1-(2-hydroxyacetyl)piperidin-4-yl)oxy)phenyl)pyridin-2-yl)-2-(5-methyl-1,3,4-oxadiazol-2-yl)cyclopropane-1-carboxamide], the values for the IC50 on IKKε and on TBK1 were 41 nM and 36.6 nM, respectively.
